Source: ChEMBL document CHEMBL4184249, “Structural development of tetrachlorophthalimides as liver X receptor β (LXRβ)-selective agonists with improved aqueous solubility” (Bioorg Med Chem Lett, 2018)
pEC50: −log10 of the molar value. The source made the active and inactive calls. No cut-off for these calls is given here.

Experiments:
[1] = molecular target: T1, Oxysterols receptor LXR-beta (Mus musculus, UniProt Q60644); experiment: Agonist activity at mouse LXRbeta expressed in HEK293 cells co-expressing CMX-beta-galactosidase incubated for 16 hrs by luciferase reporter gene assay; format: cell-based
T1 sequence (Q60644 whole entry): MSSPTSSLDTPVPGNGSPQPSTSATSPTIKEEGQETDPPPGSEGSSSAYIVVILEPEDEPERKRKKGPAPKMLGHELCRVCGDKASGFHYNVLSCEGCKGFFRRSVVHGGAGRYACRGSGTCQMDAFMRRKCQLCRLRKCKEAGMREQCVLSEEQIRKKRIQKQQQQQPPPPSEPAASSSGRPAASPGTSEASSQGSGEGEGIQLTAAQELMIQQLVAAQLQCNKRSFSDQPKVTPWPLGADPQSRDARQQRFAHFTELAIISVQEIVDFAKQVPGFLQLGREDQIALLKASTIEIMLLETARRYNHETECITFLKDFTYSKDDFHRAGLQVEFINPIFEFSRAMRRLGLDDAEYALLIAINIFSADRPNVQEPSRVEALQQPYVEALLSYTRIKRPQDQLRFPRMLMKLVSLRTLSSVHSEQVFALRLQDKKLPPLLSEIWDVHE

[2] = molecular target: T2, Peroxisome proliferator-activated receptor alpha (Homo sapiens) (UniProt Q07869); experiment: Agonist activity at GAL4-tagged PPARalpha (unknown origin) expressed in HEK293 cells co-expressing CMX-beta-galactosidase at 0.3 to 30 uM incubated for 16 hrs by luciferase reporter gene assay; format: cell-based
T2 sequence (whole entry): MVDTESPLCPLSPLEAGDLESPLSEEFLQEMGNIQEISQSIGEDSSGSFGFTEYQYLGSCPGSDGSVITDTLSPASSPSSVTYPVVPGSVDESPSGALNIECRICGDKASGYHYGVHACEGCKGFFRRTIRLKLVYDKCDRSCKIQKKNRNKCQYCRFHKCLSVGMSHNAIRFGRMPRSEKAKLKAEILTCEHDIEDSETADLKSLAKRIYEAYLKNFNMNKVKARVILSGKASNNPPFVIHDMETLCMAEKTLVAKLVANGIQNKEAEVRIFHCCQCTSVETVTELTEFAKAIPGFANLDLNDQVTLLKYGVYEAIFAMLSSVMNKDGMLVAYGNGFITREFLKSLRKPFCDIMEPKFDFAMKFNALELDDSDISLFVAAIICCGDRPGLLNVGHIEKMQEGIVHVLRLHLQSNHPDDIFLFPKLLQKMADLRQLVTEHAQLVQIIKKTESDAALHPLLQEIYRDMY

[3] = molecular target: T3, Peroxisome proliferator-activated receptor gamma (Homo sapiens) (UniProt P37231); experiment: Agonist activity at GAL4-tagged PPARgamma (unknown origin) expressed in HEK293 cells co-expressing CMX-beta-galactosidase at 0.3 to 30 uM incubated for 16 hrs by luciferase reporter gene assay; format: cell-based
T3 sequence (whole entry): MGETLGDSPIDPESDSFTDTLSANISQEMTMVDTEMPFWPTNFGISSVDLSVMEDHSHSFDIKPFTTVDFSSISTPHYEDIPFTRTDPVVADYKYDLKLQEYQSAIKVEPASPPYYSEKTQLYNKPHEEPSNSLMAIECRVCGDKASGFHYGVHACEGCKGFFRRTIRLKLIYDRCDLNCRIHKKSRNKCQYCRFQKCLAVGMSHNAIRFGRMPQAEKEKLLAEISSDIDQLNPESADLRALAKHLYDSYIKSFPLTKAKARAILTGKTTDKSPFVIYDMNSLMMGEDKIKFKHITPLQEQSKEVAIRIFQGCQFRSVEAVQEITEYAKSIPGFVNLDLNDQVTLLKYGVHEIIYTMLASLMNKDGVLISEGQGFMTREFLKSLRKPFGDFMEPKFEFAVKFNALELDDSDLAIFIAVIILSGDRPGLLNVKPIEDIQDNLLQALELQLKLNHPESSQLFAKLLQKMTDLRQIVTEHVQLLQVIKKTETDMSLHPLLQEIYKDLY

[4] = molecular target: T4, Retinoic acid receptor RXR-gamma (Homo sapiens) (UniProt P48443); experiment: Agonist activity at GAL4-tagged RXRgamma (unknown origin) expressed in HEK293 cells co-expressing CMX-beta-galactosidase at 0.3 to 30 uM incubated for 16 hrs by luciferase reporter gene assay; format: cell-based
T4 sequence (whole entry): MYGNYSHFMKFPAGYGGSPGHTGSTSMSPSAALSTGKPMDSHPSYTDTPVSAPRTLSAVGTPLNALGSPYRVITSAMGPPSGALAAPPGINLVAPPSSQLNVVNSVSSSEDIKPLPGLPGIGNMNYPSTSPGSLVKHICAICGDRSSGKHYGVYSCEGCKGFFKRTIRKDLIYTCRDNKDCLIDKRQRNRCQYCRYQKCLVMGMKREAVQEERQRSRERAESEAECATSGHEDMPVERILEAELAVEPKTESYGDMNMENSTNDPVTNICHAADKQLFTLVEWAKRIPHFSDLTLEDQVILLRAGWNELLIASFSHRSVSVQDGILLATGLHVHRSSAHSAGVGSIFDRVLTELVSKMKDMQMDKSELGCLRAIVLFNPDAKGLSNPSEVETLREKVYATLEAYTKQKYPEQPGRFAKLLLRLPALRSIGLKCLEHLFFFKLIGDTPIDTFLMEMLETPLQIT

[5] = molecular target: T5, Oxysterols receptor LXR-beta (Homo sapiens, UniProt P55055); experiment: Agonist activity at LXRbeta ligand-binding domain (unknown origin) incubated for 1.5 hrs using fluorescein-labeled coactivator peptide by TR-FRET competitive binding assay
[6] = molecular target: T6, Oxysterols receptor LXR-beta (Homo sapiens) (UniProt P55055); experiment: Agonist activity at LXRbeta in human THP1 cells assessed as increase in ABCA1 mRNA expression at 0.1 uM by real-time quantitative RT-PCR method; format: cell-based
T6 sequence (whole entry): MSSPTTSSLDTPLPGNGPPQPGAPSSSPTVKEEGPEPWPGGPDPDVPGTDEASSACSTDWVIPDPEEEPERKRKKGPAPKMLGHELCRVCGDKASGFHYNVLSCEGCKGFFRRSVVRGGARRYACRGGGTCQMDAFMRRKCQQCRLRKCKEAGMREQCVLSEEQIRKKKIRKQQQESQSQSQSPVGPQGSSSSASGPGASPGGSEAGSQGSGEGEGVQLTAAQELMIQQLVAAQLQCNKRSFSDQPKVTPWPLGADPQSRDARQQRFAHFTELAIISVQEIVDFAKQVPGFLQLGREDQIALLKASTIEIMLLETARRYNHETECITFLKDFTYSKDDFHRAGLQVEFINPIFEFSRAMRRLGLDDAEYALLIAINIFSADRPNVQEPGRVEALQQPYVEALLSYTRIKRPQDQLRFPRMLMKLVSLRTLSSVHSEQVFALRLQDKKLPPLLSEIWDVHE

[7] = molecular target: T5, Oxysterols receptor LXR-beta; experiment: Agonist activity at LXRbeta ligand-binding domain (unknown origin) incubated for 1.5 hrs using fluorescein-labeled coactivator peptide by TR-FRET competitive binding assay
[8] = molecular target: T5, Oxysterols receptor LXR-beta; experiment: Agonist activity at LXRbeta ligand-binding domain (unknown origin) at 3 uM incubated for 1.5 hrs using fluorescein-labeled coactivator peptide by TR-FRET competitive binding assay relative to T0901317

pEC50 [1]: 6.10
Activity [2]: inactive
Activity [3]: inactive
Activity [4]: inactive
pEC50 [5]: 7.39
Activity [6]: Active
Activity [7]: Dose-dependent effect
Efficacy [8]: 14%
SMILES: O=C1c2c(Cl)c(Cl)c(Cl)c(Cl)c2C(=O)N1c1ccccc1/C=C/c1cccs1
